Measured values: the supplement of paper PMC4862054
Several values for one entry are separate records, joined by “and”; a condition that tells them apart may be missing. Equal entries are not always repeated.

Tests used:
Settings in all cases: incubation time: 72 h
CAL-148 [1] = test: normalised viability (% of control), CellTiter-Blue; higher = more viable cells (about 100 = DMSO control)
Experimental: (§1)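 DSRT, CellTiter-Blue viability, 72 h incubation. Signal is normalised to DMSO and benzethonium chloride controls. Value is the normalised response at dose 9.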

CAL-51 [2] = test: as above
Experimental: as §1

CAL-85-1 [3] = test: as above
Experimental: as §1

DU-4475 [4] = test: as above
Experimental: as §1

HDQ-P1 [5] = test: as above
Experimental: as §1

MDA-MB-453 [6] = test: as above
Experimental: as §1

BT-474 = test: normalised response (% of control), CellTiter-Glo; higher = more viable cells (100 = DMSO, 0 = benzethonium chloride kill control)
Outline: (§2)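 Plates were normalised with 0.1 % DMSO as 100 and a positive kill control as 0. Breast cancer cell lines in 20 µl suspension had been seeded into 384-well plates with compound at 5 concentrations in 10-fold steps over a compound-specific 10,000-fold range, incubated 72 h, and read for CellTox Green fluorescence (485/520 nm) followed by CellTiter-Glo luminescence. Each value is the normalised signal at a single concentration.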

BT-549 = test: as above
Outline: as §2

CAL-120 = test: as above
Outline: as §2

CAL-148 [7] = test: as above
Outline: as §2

CAL-51 [8] = test: as above
Outline: as §2

CAL-85-1 [9] = test: as above
Outline: as §2

DU-4475 [10] = test: as above
Outline: as §2

HCC1143 = test: as above
Outline: as §2

HCC1599 = test: as above
Outline: as §2

HCC1937 = test: as above
Outline: as §2

HDQ-P1 [11] = test: as above
Outline: as §2

Hs578T = test: as above
Outline: as §2

MCF-10A = test: as above
Outline: as §2

MDA-MB-231 = test: as above
Outline: as §2

MDA-MB-436 = test: as above
Outline: as §2

MDA-MB-453 [12] = test: as above
Outline: as §2

MDA-MB-468 = test: as above
Outline: as §2

MFM-223 = test: as above
Outline: as §2

SK-BR-3 = test: as above
Outline: as §2

SMILES	normalised viability (CAL-148 [1])	normalised viability (CAL-51 [2])	normalised viability (CAL-85-1 [3])	normalised viability (DU-4475 [4])	normalised viability (HDQ-P1 [5])	normalised viability (MDA-MB-453 [6])	normalised response (BT-474) [%]	normalised response (BT-549) [%]	normalised response (CAL-120) [%]	normalised response (CAL-148 [7]) [%]	normalised response (CAL-51 [8]) [%]	normalised response (CAL-85-1 [9]) [%]	normalised response (DU-4475 [10]) [%]	normalised response (HCC1143) [%]	normalised response (HCC1599) [%]	normalised response (HCC1937) [%]	normalised response (HDQ-P1 [11]) [%]	normalised response (Hs578T) [%]	normalised response (MCF-10A) [%]	normalised response (MDA-MB-231) [%]	normalised response (MDA-MB-436) [%]	normalised response (MDA-MB-453 [12]) [%]	normalised response (MDA-MB-468) [%]	normalised response (MFM-223) [%]	normalised response (SK-BR-3) [%]
CC(=O)O[C@@]12CO[C@@H]1C[C@H](O)[C@@]1(C)C(=O)[C@H](O)C3=C(C)[C@@H](OC(=O)[C@H](O)[C@@H](NC(=O)OC(C)(C)C)c4ccccc4)C[C@@](O)([C@@H](OC(=O)c4ccccc4)[C@H]21)C3(C)C [Docetaxel] (1000 nM)	23.1% and 21.2%	16.2% and 12.2%	32.1% and 32.3%	11.7% and 10.5%	51.3% and 42.4%	23.1% and 24.4%																			
COc1cc2c(cc1O)CC[C@@H]1[C@@H]2CC[C@]2(C)[C@@H](O)CC[C@@H]12 [2-methoxyestradiol] (1000 nM)							68.9	49.5	81.8	96.4	92.9	77.6	98.5	82.5	96.6	89.6	99.9	77.3	96	73.9	74.2	72.7	95.1	75.3	83.2
Nc1ncn([C@@H]2O[C@H](CO)[C@@H](O)[C@H]2O)c(=O)n1 [Azacitidine] (1000 nM)							96.7	80.5	91.1	96.2	119	106	90.5	99.5	84.9	90.9	96.4	102	110	97.4	79.1	96.8	39	96.7	91.7
Nc1nc2[nH]cnc2c(=S)[nH]1 [Thioguanine] (1000 nM)							44.8	94.2	79	93.4	91.9	70.3	88.5	99.1	82	59.9	66.1	78.3	99.8	50.7	83.8	94.3	95.7	93.7	95.4
Cn1cnc2c(F)c(Nc3ccc(Br)cc3Cl)c(C(=O)NOCCO)cc21 [Selumetinib] (10000 nM)	89.9%	80.3%	49.6%	0.33%	65.7%	75.8%																			
CC(=O)O[C@@]12CO[C@@H]1C[C@H](O)[C@@]1(C)C(=O)[C@H](O)C3=C(C)[C@@H](OC(=O)[C@H](O)[C@@H](NC(=O)OC(C)(C)C)c4ccccc4)C[C@@](O)([C@@H](OC(=O)c4ccccc4)[C@H]21)C3(C)C [Docetaxel] (100 nM)							38.3	16	56.3	36.6	27.4	28.1	34.7	31.5	28.5	68.3	67.1	13	41.5	28.7	31.6	45.3	36.6	40	10.1
Cn1cc(C2=Nc3cc(NC(=O)C(N)C4CCCCC4)cc4c3C2=CNNC4=O)cn1 (stereo not drawn) (1000 nM)							68.5	25.7	69.7	83.8	81.6	36.8	89	64.5	11.9	87	85.2	41.3	74.5	63.7	53.3	35.9	30.7	46.4	17.8
Cn1cc(C2=Nc3cc(NC(=O)C(N)C4CCCCC4)cc4c3C2=CNNC4=O)cn1 (stereo not drawn) (10000 nM)	28.1%	30%	48.9%	41.9%	35.2%	16.3%																			
CC1(C)CNc2cc(NC(=O)c3cccnc3NCc3ccncc3)ccc21 [Motesanib] (1000 nM)							91.9	97.6	92.3	86.4	85.7	93.5	98.4	93.6	98.1	101	96.6	96.4	96.9	89.1	103	101	91.5	91	80.6
Oc1ncnc2[nH]ncc12 [Allopurinol] (10000 nM)	118%	92.5%	109%	115%	99.2%	108%																			
O=C1CN2Cc3c(ccc(Cl)c3Cl)N=C2N1 [Anagrelide] (10000 nM)	115%	83.8%	89.8%	108%	118%	90.9%																			
Oc1ncnc2[nH]ncc12 [Allopurinol] (1000 nM)							101	99.7	98.8	99.2	123	96.2	105	107	119	94.3	98.1	109	106	103	100	107	106	108	112
CC1=C2C[C@H]3[C@@H](CC=C4C[C@@H](O)CC[C@@]43C)[C@@H]2CC[C@]12O[C@@H]1C[C@H](C)CN[C@H]1[C@H]2C [Cyclopamine] (1000 nM)							95.7	92.4	106	105	68	106	99.5	105	108	98.5	103	111	106	112	101	108	105	110	111
CC1=C2C[C@H]3[C@@H](CC=C4C[C@@H](O)CC[C@@]43C)[C@@H]2CC[C@]12O[C@@H]1C[C@H](C)CN[C@H]1[C@H]2C [Cyclopamine] (10000 nM)	116%	102%	94.8%	107%	148%	119%																			
O=NN(CCCl)C(=O)NCCCl [Carmustine] (1000 nM)							95.5	101	96.6	91.3	121	97.5	98.9	100	101	99.8	101	102	98.3	97.8	101	102	96.8	97.6	96.2
COc1cc2c(cc1O)CC[C@@H]1[C@@H]2CC[C@]2(C)[C@@H](O)CC[C@@H]12 [2-methoxyestradiol] (10000 nM)	58.1%	20.6%	57.5%	28.7%	47.3%	36.6%																			
CC(C)(C)c1cnc(CSc2cnc(NC(=O)C3CCNCC3)s2)o1 [SNS-032] (1000 nM)							20.2	8.17	36.9	53.8	9.15	6.5	6.57	12.1	7.69	26.1	20.8	13	14.3	7.43	17.6	25.5	5.83	18.9	3.47
O=C1CN2Cc3c(ccc(Cl)c3Cl)N=C2N1 [Anagrelide] (1000 nM)							90.7	95.1	93.6	95	88.4	101	98	97.9	118	96.8	95.1	88.7	101	94.2	95.8	101	102	102	98.2
Cc1sc2c(c1C)C(c1ccc(Cl)cc1)=N[C@@H](CC(=O)OC(C)(C)C)c1nnc(C)n1-2 [(+)JQ1] (1000 nM)							69.9	43.5	73.4	71.5	103	38.7	56.6	72.8	80	80.8	68.5	48.8	57.1	77.2	83.2	46.1	55.1	58.2	66.9
CC[C@@H]1C(=O)OC[C@@H]1Cc1cncn1C [Pilocarpine] (4000 nM)							92.2	97.6	95.7	91.6	96.8	102	97	92.2	92.7	92.6	92	105	93.8	97.4	91.5	98.9	91.8	94.1	92.4
Cn1cnc2c(F)c(Nc3ccc(Br)cc3Cl)c(C(=O)NOCCO)cc21 [Selumetinib] (1000 nM)							67.8	96.5	85.1	79.4	110	107	4.56	85.1	93.9	84.7	63.8	93.4	37.6	72.5	90.7	106	87.8	92.2	86.8
